Among the data in patent US4311842A, “Cephalosporin compounds” (Yamanouchi Pharmaceutical Co., Ltd., priority 1978, dated 1982) are MIC values, retold here.

Values after ≈ are worked out from the molar mass of the structure shown.

Common to all, as to format: cell-based
Test [1] has as its system Proteus mirabilis IFM OM-9. As to the kind of experiment: Antibacterial activity, minimum inhibitory concentration, Proteus mirabilis IFM OM-9. The conditions noted are these: IFMOM9. The source says: (§1) The antibacterial activity (the minimum inhibitory concentration) of the compounds of this invention shown by formula I is shown in the following table in comparison to those of known compounds having similar structures, 7-[2-amino-2-(2-aminothiazol-4-yl)acetamido]-3-(1-methyl-tetrazol-5-yl)thiomethyl-Δ^3 -cephem-4-carboxylic acid (Compound A) having the following formula [drawing 8] and 7-[2-amino-2-(2-aminothiazol-4-yl)acetamido]cephalosporanic acid Compound B) having the following formula; [drawing 9]

Test [2] deals with Pseudomonas aeruginosa ATCC 8689. As to the kind of experiment: Antibacterial activity, minimum inhibitory concentration, Pseudomonas aeruginosa ATCC 8689. The conditions noted are these: ATCC8689.
From the text: as §1

Test [3] relates to Staphylococcus aureus Oonuma. As to the kind of experiment: Antibacterial activity, minimum inhibitory concentration, Staphylococcus aureus Oonuma. The conditions noted are these: Staphylococcus aureus Oonuma (penicillin, Streptomycin-resistant).
From the text: as §1

For test [4], the system named is Pseudomonas aeruginosa 99. As to the kind of experiment: Antibacterial activity, minimum inhibitory concentration, Pseudomonas aeruginosa 99. The conditions noted are these: Pseudomonas aeruginosa 99 (Gentamicin-resistant).
From the text: as §1

The test system of test [5] is Corynebacterium xerosis. As to the kind of experiment: Antibacterial activity, minimum inhibitory concentration, Corynebacterium xerosis.
From the text: as §1

Test [6] relates to Vibrio Hy 133. As to the kind of experiment: Antibacterial activity, minimum inhibitory concentration, Vibrio Hy 133. The conditions noted are these: HY133.
From the text: as §1

The test system of test [7] is Salmonella enteritidis 1891. As to the kind of experiment: Antibacterial activity, minimum inhibitory concentration, Salmonella enteritidis 1891. The conditions noted are these: Salmonella enterica.
From the text: as §1

Test [8] has as its system Staphylococcus aureus 209P. As to the kind of experiment: Antibacterial activity, minimum inhibitory concentration, Staphylococcus aureus 209P.
From the text: as §1

Test [9] concerns Bacillus subtilis ATCC 6633. As to the kind of experiment: Antibacterial activity, minimum inhibitory concentration, Bacillus subtilis ATCC 6633. The conditions noted are these: ATCC6633.
From the text: as §1

Test [10] deals with Staphylococcus aureus ATCC 6538P. As to the kind of experiment: Antibacterial activity, minimum inhibitory concentration, Staphylococcus aureus ATCC 6538P. The conditions noted are these: ATCC6538P.
From the text: as §1

Test [11] has as its system Pseudomonas aeruginosa NCTC 10490. As to the kind of experiment: Antibacterial activity, minimum inhibitory concentration, Pseudomonas aeruginosa NCTC 10490. The conditions noted are these: NCTC10490.
From the text: as §1

Test [12] has as its system Proteus vulgaris OXK US. As to the kind of experiment: Antibacterial activity, minimum inhibitory concentration, Proteus vulgaris OXK US.
From the text: as §1

On to `CC(=O)OCC1=C(C(=O)O)N2C(=O)C(NC(=O)C(NC(=O)c3cnc(C)cc3O)c3cscn3)C2SC1` (racemic) [Example 1, DL-7-[2-(4-hydroxy-6-methylnicotinamido)-2-(thiazol-4-yl)acetamido]-cephalosporanic acid], for which the MIC in [1] stood at 3.13 µg/mL (≈ 5.72 µM); in test [2], 25 µg/mL (≈ 45.7 µM); in [3] it was 6.25 µg/mL (≈ 11.4 µM); in [4], 25 µg/mL (≈ 45.7 µM); in test [5] it was 3.13 µg/mL (≈ 5.72 µM); in test [6] it was 0.78 µg/mL (≈ 1.42 µM). Further, the MIC in test [7] is 3.13 µg/mL (≈ 5.72 µM); in test [8], 1.56 µg/mL (≈ 2.85 µM); in test [9], 3.13 µg/mL (≈ 5.72 µM); in [10] it was 3.13 µg/mL (≈ 5.72 µM); in test [11] it was 1.56 µg/mL (≈ 2.85 µM); in test [12] it was 1.56 µg/mL (≈ 2.85 µM).

Take `CC(=O)OCC1=C(C(=O)O)N2C(=O)C(NC(=O)C(NC(=O)c3cnc(C)cc3O)c3csc(N)n3)C2SC1` (racemic) [Example 2, DL-7-[2-(4-hydroxy-6-methylnicotinamido)-2-(2-aminothiazol-4-yl)acetamido]cephalosporanic acid]: the MIC in test [1] worked out at 0.39 µg/mL (≈ 0.693 µM); in test [2] it was 50 µg/mL (≈ 88.9 µM); in [3], 12.5 µg/mL (≈ 22.2 µM); in test [4] it was 25 µg/mL (≈ 44.4 µM); in [5], 6.25 µg/mL (≈ 11.1 µM); in test [6] it was 0.78 µg/mL (≈ 1.39 µM). Further, the MIC is 0.78 µg/mL (≈ 1.39 µM) in [7]; 3.13 µg/mL (≈ 5.56 µM) in test [8]; 6.25 µg/mL (≈ 11.1 µM) in [9]; 6.25 µg/mL (≈ 11.1 µM) in test [10]; 1.56 µg/mL (≈ 2.77 µM) in [11]; 0.78 µg/mL (≈ 1.39 µM) in test [12].

For the compound `CC(=O)OCC1=C(C(=O)O)N2C(=O)C(NC(=O)C(NC(=O)c3csccc3=O)c3csc(N)n3)C2SC1` (racemic) [Example 3, DL-7-[2-(2-aminothiazol-4-yl)-2-(4-oxo-4H-thiopyran-3-carboxamido)-acetamido]cephalosporanic acid], the MIC turned out to be 0.78 µg/mL (≈ 1.38 µM) in test [1]; 100 µg/mL (≈ 177 µM) in [2]; 6.25 µg/mL (≈ 11 µM) in [3]; 100 µg/mL (≈ 177 µM) in test [4]; 3.13 µg/mL (≈ 5.53 µM) in test [5]; 0.78 µg/mL (≈ 1.38 µM) in test [6]. Moreover, the MIC in test [7] was 0.39 µg/mL (≈ 0.69 µM); in [8], 1.56 µg/mL (≈ 2.76 µM); in test [9], 3.13 µg/mL (≈ 5.53 µM); in [10], 3.13 µg/mL (≈ 5.53 µM); in test [11], 25 µg/mL (≈ 44.2 µM); in [12], 1.56 µg/mL (≈ 2.76 µM).

In the case of `CC(=O)OCC1=C(C(=O)O)N2C(=O)C(NC(=O)C(NC(=O)c3csccc3=O)c3cscn3)C2SC1` (racemic) [Example 4, DL-7-[2-(4-oxo-4H-thiopyran-3-carboxamido)-2-(thiazol-4-yl)acetamido]cephalosporanic acid], the MIC in [1] came to 6.25 µg/mL (≈ 11.4 µM); in test [2], 100 µg/mL (≈ 182 µM); in [3], 6.25 µg/mL (≈ 11.4 µM); in test [4], 100 µg/mL (≈ 182 µM); in test [5] it was 1.56 µg/mL (≈ 2.83 µM); in [6] it was 0.78 µg/mL (≈ 1.42 µM). Besides, the MIC in test [7] was 6.25 µg/mL (≈ 11.4 µM); in [8], 1.56 µg/mL (≈ 2.83 µM); in test [9], 1.56 µg/mL (≈ 2.83 µM); in test [10], 1.56 µg/mL (≈ 2.83 µM); in test [11], 6.25 µg/mL (≈ 11.4 µM); in [12], 3.13 µg/mL (≈ 5.68 µM).

Consider `Cn1nnnc1SCC1=C(C(=O)O)N2C(=O)C(NC(=O)C(NC(=O)c3csccc3=O)c3cscn3)C2SC1` (racemic) [Example 5, DL-7-[2-(4-oxo-4H-thiopyran-3-carboxamido)-2-(thiazol-4-yl)acetamido]-3-(1-methyltetrazol-5-yl)thiomethyl-Δ^3-cephem-4-carboxylic acid], for which the MIC in [1] was determined as 1.56 µg/mL (≈ 2.57 µM); in [2], 50 µg/mL (≈ 82.4 µM); in test [3], 6.25 µg/mL (≈ 10.3 µM); in test [4] it was 50 µg/mL (≈ 82.4 µM); in test [5], 3.13 µg/mL (≈ 5.16 µM); in test [6], 0.39 µg/mL (≈ 0.643 µM). Moreover, the MIC is 0.78 µg/mL (≈ 1.29 µM) in test [7]; 0.78 µg/mL (≈ 1.29 µM) in test [8]; 3.13 µg/mL (≈ 5.16 µM) in test [9]; 1.56 µg/mL (≈ 2.57 µM) in [10]; 1.56 µg/mL (≈ 2.57 µM) in [11]; 1.56 µg/mL (≈ 2.57 µM) in test [12].

For `Cn1nnnc1SCC1=C(C(=O)O)N2C(=O)C(NC(=O)C(NC(=O)c3csccc3=O)c3csc(N)n3)C2SC1` (racemic) [Example 6, DL-7-[2-(2-aminothiazol-4-yl)-2-(4-oxo-4H-thiopyran-3-carboxyamido)acetamido]-3-(1-methyltetrazol-5-yl)thiomethyl-Δ^3-cephem-4-carboxylic acid], the MIC in test [1] is 0.09 µg/mL (≈ 0.145 µM); in test [2], 50 µg/mL (≈ 80.4 µM); in [3], 3.13 µg/mL (≈ 5.03 µM); in test [4], 50 µg/mL (≈ 80.4 µM); in [5], 1.56 µg/mL (≈ 2.51 µM); in test [6], 0.78 µg/mL (≈ 1.25 µM). Also, the MIC in test [7] turned out to be 0.19 µg/mL (≈ 0.306 µM); in [8], 0.78 µg/mL (≈ 1.25 µM); in [9], 1.56 µg/mL (≈ 2.51 µM); in test [10], 1.56 µg/mL (≈ 2.51 µM); in test [11], 0.78 µg/mL (≈ 1.25 µM); in test [12] it was 0.19 µg/mL (≈ 0.306 µM).

With `Cc1cc(O)c(C(=O)NC(C(=O)NC2C(=O)N3C(C(=O)O)=C(CSc4nnnn4C)CSC23)c2csc(N)n2)cn1` (racemic) [Example 7, DL-7-[2-(2-aminothiazol-4-yl)-2-(4-hydroxy-6-methylnicotinamido)acetamido]-3-(1-methyltetrazol-5-yl)thiomethyl-Δ^3-cephem-4-carboxylic acid], the MIC is 0.09 µg/mL (≈ 0.145 µM) in test [1]; 25 µg/mL (≈ 40.4 µM) in test [2]; 6.25 µg/mL (≈ 10.1 µM) in test [3]; 12.5 µg/mL (≈ 20.2 µM) in test [4]; 6.25 µg/mL (≈ 10.1 µM) in test [5]; 0.78 µg/mL (≈ 1.26 µM) in test [6]. In addition, the MIC in test [7] is 0.09 µg/mL (≈ 0.145 µM); in test [8], 1.56 µg/mL (≈ 2.52 µM); in test [9], 3.13 µg/mL (≈ 5.06 µM); in [10], 1.56 µg/mL (≈ 2.52 µM); in test [11], 0.39 µg/mL (≈ 0.63 µM); in test [12], 0.19 µg/mL (≈ 0.307 µM).

Take `Cc1cc(O)c(C(=O)NC(C(=O)NC2C(=O)N3C(C(=O)O)=C(CSc4nnnn4C)CSC23)c2cscn2)cn1` (racemic) [Example 8, DL-7-[2-(4-hydroxy-6-methylnicotinamido)-2-(thiazol-4-yl)-acetamido]-3-(1-methyltetrazol-5-yl)thiomethyl-Δ^3-cephem-4-carboxylic acid]: the MIC in test [1] turned out to be 1.56 µg/mL (≈ 2.58 µM); in test [2], 25 µg/mL (≈ 41.4 µM); in [3], 6.25 µg/mL (≈ 10.4 µM); in [4], 12.5 µg/mL (≈ 20.7 µM); in test [5] it was 3.13 µg/mL (≈ 5.18 µM); in test [6], 0.78 µg/mL (≈ 1.29 µM). Further, the MIC in [7] came to 0.78 µg/mL (≈ 1.29 µM); in test [8], 1.56 µg/mL (≈ 2.58 µM); in test [9], 3.13 µg/mL (≈ 5.18 µM); in [10], 1.56 µg/mL (≈ 2.58 µM); in test [11], 0.78 µg/mL (≈ 1.29 µM); in test [12], 1.56 µg/mL (≈ 2.58 µM).

As for `Cn1nnnc1SCC1=C(C(=O)O)N2C(=O)C(NC(=O)C(N)c3csc(N)n3)C2SC1` (stereo not drawn) [Compound A, 7-[2-amino-2-(2-aminothiazol-4-yl)acetamido]-3-(1-methyl-tetrazol-5-yl)thiomethyl-Δ^3-cephem-4-carboxylic acid, reference compound], the MIC is 1.56 µg/mL (≈ 3.23 µM) in test [1]; > 100 µg/mL in test [2]; 100 µg/mL (≈ 207 µM) in [3]; > 100 µg/mL in test [4]; 25 µg/mL (≈ 51.7 µM) in test [5]; 6.25 µg/mL (≈ 12.9 µM) in test [6]. Besides, the MIC in test [7] is 0.78 µg/mL (≈ 1.61 µM); in [8] it was 12.5 µg/mL (≈ 25.8 µM); in test [9] it was 12.5 µg/mL (≈ 25.8 µM); in test [10], 25 µg/mL (≈ 51.7 µM); in test [11], 100 µg/mL (≈ 207 µM); in [12] it was 6.25 µg/mL (≈ 12.9 µM).

With `CC(=O)OCC1=C(C(=O)O)N2C(=O)C(NC(=O)C(N)c3csc(N)n3)C2SC1` (stereo not drawn) [Compound B, 7-[2-amino-2-(2-aminothiazol-4-yl)acetamido]cephalosporanic acid, reference compound], the MIC in [1] was 1.56 µg/mL (≈ 3.65 µM); in [2] it was > 100 µg/mL; in test [3] it was 12.5 µg/mL (≈ 29.2 µM); in test [4], > 100 µg/mL; in test [5], 3.13 µg/mL (≈ 7.32 µM); in [6], 1.56 µg/mL (≈ 3.65 µM). Besides, the MIC is 0.78 µg/mL (≈ 1.82 µM) in [7]; 3.13 µg/mL (≈ 7.32 µM) in [8]; 1.56 µg/mL (≈ 3.65 µM) in [9]; 3.13 µg/mL (≈ 7.32 µM) in [10]; > 100 µg/mL in test [11]; 3.13 µg/mL (≈ 7.32 µM) in test [12].
